Measurements from ChEMBL document CHEMBL2390851, “Synthesis and preliminary in vitro biological evaluation of 7α-testosterone-chlorambucil hybrid designed for the treatment of prostate cancer” (Eur J Med Chem, 2013).
Active and inactive are the calls of the source. No cut-off for these calls is given here.

Columns and labels:
Assay type in all cases: functional, cell-based
PC-3 [1] = experiment: Cytotoxicity against androgen receptor deficient human PC3 cells after 72 hrs by MTT assay; conditions: PC-3, 72 h
LNCaP = experiment: Cytotoxicity against human LNCAP cells expressing androgen receptor after 72 hrs by MTT assay
PC-3 [2] = experiment: Cytotoxicity against androgen receptor deficient human PC3 cells at 160 uM after 72 hrs by MTT assay

O=C(O)CCCc1ccc(N(CCCl)CCCl)cc1 [CHLORAMBUCIL]
IC50 (PC-3 [1]): 131 µM
IC50 (LNCaP): 124 µM

C[C@]12CC[C@H]3[C@@H]([C@H](C/C=C/COC(=O)CCCc4ccc(N(CCCl)CCCl)cc4)CC4=CC(=O)CC[C@@]43C)[C@@H]1CC[C@@H]2O (mixture of isomers)
Activity (PC-3 [2]): inactive
IC50 (LNCaP): 101 µM
